For test [1], the system named is HaCaT (human keratinocyte cell line). Description: Cytotoxicity MTT assay, HaCaT. In kind it is cell-based. The settings on record: MTT. The protocol:
(§1) This test is based on the reduction of 3-(4,5-dimethyl-2-thiazolyl)-2,5-diphenyl-2-tetrazole bromide by viable cells, with formation of violet insoluble formazan crystals. Five cell lines were used in order to evaluate the cytotoxic effect of the compounds as a whole.
(§2) The cytotoxicity of compounds 4, 16, 28 and copper oxychloride was determined by MTT assay. The cell lines used were HaCaT (human keratinocyte cell line—CLS 300493), Huh-7.5 (human hepatoma cell line—ATCC® PTA-8561), MRC-5 (human lung fibroblast cell line—ATCC CCL-171), VERO (monkey kidney epithelial cell line—ATCC® CCL81) and ACHN (human renal adenocarcinoma cell line—ATCC® CRL1611). The cells were cultured in appropriate medium recommended by the American Type Culture Collection.
(§3) The assay was performed with the concentration of 10^4 cells for both cell lines, distributed in 96-well plates and incubated at 37 °C in a 5% CO2 controlled atmosphere oven for 24 h. After the incubation period, the cells were treated with the compounds with a range of 1.56–200 μmol L^−1 and incubated for 24 h. The supernatant was removed, then 100 μL of 3-(4,5-dimethyl-2-thiazolyl)-2,5-diphenyl-2H-tetrazolium (MTT) salt at 1 mg mL^−1 diluted in DMEM medium (Gibco Life Technologies, Gaithersburg, MD, USA) was added and incubated for 30 min. Subsequently, the MTT was removed, then 100 μL of DMSO under agitation for 5 min at 60 rpm was added. The plates were read at 570 nm in a FLUOstar Omega/BMG LABTECH plate reader, Offenburg, BW, DE. We carried out the experiments in triplicate and three independent events for statistical analysis (GraphPad Software, San Diego, CA, USA). The MTT assay is based on the tetrazolium salt (yellow-colored) reduction to formazan (purple-colored) by metabolically active cells.

Test [2] has as its system MRC-5 (human lung fibroblast cell line). The experiment in a line: Cytotoxicity MTT assay, MRC-5. The format is cell-based. The note with it: MTT. The protocol:
as §1, §2, §3

Test [3] deals with Xanthomonas citri subsp. citri. The experiment in a line: Growth curve of Xcc (OD 600 nm). In kind it is cell-based. The note with it: MIC and ½ MIC, 72 h. The protocol: According to the growth curves of the positive control (PC) and vehicle control (DMSO), it was observed that Xcc reaches the maximum growth phase in a period of 15 h. […] The early growth inhibition (lag phase), which happens in the first hours of contact (period of the first cellular divisions) can be a dynamic process. […] This can be explained because the compounds have bacteriostatic action; that is, as the time passes, the cells become able to recover and restart doubling. Another important finding is that the lag phase consists in the cell adaptation to the new medium conditions and the bacterial population is smaller in relation to the exponential phase facilitates the action of the compounds in the first hours (Figure 1).
An isolated colony of Xanthomonas citri subsp. citri was inoculated in NYG medium for 12 h at 29 °C. After this, the optical density (OD 600 nm) was measured and adjusted to ~0.1. […] Optical density reading was measured on a Synergy H1-BioTek plate reader every 30 min for 72 h. The growth curves were plotted with GraphPad Prism software. At the same time, the degradation assay was performed, solubilizing the compounds in DMSO, which were later incorporated in NYG medium. Later, we scanned the compounds to measure the absorbance values from 210 to 700 nm, and the maximum lambda value of each compound was selected after scanning. After that, punctual readings were carried out every 30 min for 72 h.

For test [4], the system named is Huh-7.5 (human hepatoma cell line). Description: Cytotoxicity MTT assay, Huh-7.5. The format is cell-based. The note with it: MTT. The protocol:
as §1, §2, §3

Test [5] relates to X. citri subsp. citri strain 306 (IBSBF 1594). The experiment in a line: MIC by Resazurin Microtiter Assay (REMA). The format is cell-based, Xanthomonas citri subsp. citri. The settings on record: REMA, NYG medium, 29 °C, 12 h. The protocol:
The antibacterial potential of carboxylic acids and their esters were compared to copper oxychloride (a commercial active often used to combat citrus canker). Minimal inhibitory concentration (MIC) values were determined by REMA assay, which measures cellular respiratory activity.
The antibacterial activity of alkyl dihydroxybenzoates and the determination of minimum inhibition concentration (MIC) were performed by the fluorimetric method Resazurin Microtiter Assay (REMA) with some modifications. An overnight culture of X. citri subsp. citri strain 306 (IBSBF 1594) was grown in 20 mL in Nitrogen Yeast Glycerol (NYG) at 29 °C in constant agitation of 180–200 rpm. After 12 h, the Xcc inoculum was dispersed in NYG medium and distributed into a 96 well microtiter plate to a final volume of 100 μL per well (10^5 CFU per well). Stock solutions of tested compounds at 10 mg mL^−1 were prepared in dimethyl sulfoxide (DMSO) and dispersed in NYG medium to obtain 1% DMSO and the final compound concentration range of 0.78–100 μg mL^−1. The negative control was constituted of 100 μL culture medium. In addition, the copper oxychloride was tested as a comparison to alkyl dihydroxybenzoates and kanamycin (20 μg mL^−1), which was used as a control antibiotic. The plate was subsequently incubated at 29 °C for 12 h, and 15 μg mL^−1 freshly prepared resazurin solution in water was added to each well, and the plate was incubated for 2 h. The fluorescence was determined on a Synergy H1 (BioTek, Winooski, VT, USA) microplate reader using the excitation and emission filters at wavelengths of 530 and 590 nm respectively. After the REMA assay, the minimum bactericidal concentration (CBM) assay was performed using a 96-pin stainless steel plate replicator, accurately transferring the wells from the REMA plate to Petri dishes Petri dishes were incubated in oven B.O.D. at 29 °C for 24 to 48 h. The experiments were performed in triplicate.

For test [6], the system named is VERO (monkey kidney epithelial cell line). The experiment in a line: Cytotoxicity MTT assay, VERO. In kind it is cell-based. The note with it: MTT. The protocol:
as §1, §2, §3

Test [7] relates to ACHN (human renal adenocarcinoma cell line). Description: Cytotoxicity MTT assay, ACHN. The settings on record: MTT. In kind it is cell-based. The protocol:
as §1, §2, §3

The test system of test [8] is X. citri subsp. citri strain 306 (IBSBF 1594). The note with it: anti-Xcc, previous study ref 25; cited from earlier work.
Where [9] appears, read: 24 h, unit as in text for copper oxychloride.

Values after ≈ are worked out from the molar mass of the structure shown. Where two headings read alike, the source gives them in different places.

As to `[Cl-].[Cu+2].[Cu+2].[OH-].[OH-].[OH-]` [copper oxychloride, reference compound], the “IC50 HaCaT” value in test [1] (setting [9]) is “above 200 μg mL^−1”. The IC50 is > 200 µM in test [1] (24 h treatment, read-out: IC50 HaCaT); > 200 µM in test [2] (24 h treatment, read-out: IC50 MRC-5); > 200 µM in test [4] (24 h treatment, read-out: IC50 Huh-7,5); > 200 µM in test [6] (24 h treatment, read-out: IC50 VERO); > 200 µM in test [7] (24 h treatment, read-out: IC50 ACHN). For the same molecule, the “IC50 MRC-5” value in test [2] (setting [9]) is “above 200 μg mL^−1”. Besides, the “effect on Xcc growth curve” value in test [3] was “inactive”. In addition, in test [4] (setting [9]), the “IC50 Huh-7.5” value is “above 200 μg mL^−1”. Moreover, in test [5], the MIC amounted to 43.1 µg/mL. The “IC50 VERO” value in test [6] (setting [9]) was “above 200 μg mL^−1”. In addition, the “IC50 ACHN” value in test [7] (setting [9]) is reported as “above 200 μg mL^−1”.
For `CCCCCCCOC(=O)c1cc(O)c(O)c(O)c1` [heptyl gallate], the minimum inhibitory concentration (MIC) in test [8] is 116 µM (≈ 31.1 µg/mL).

The values are drawn from article PMC6213047, “Design of Antibacterial Agents: Alkyl Dihydroxybenzoates against Xanthomonas citri subsp. citri” (International Journal of Molecular Sciences, 2018).
